In series [1] the test system is pluripotent stem cells. As to the kind of experiment: Number of cell divisions by fluorescent cell staining. It is filed as cell-based, human. Particulars: listed as GKKQRFRHRNKG
Series [2] deals with hESCs (H1 and H9). As to the kind of experiment: hESC culture for 6 days on peptide-AT SAM arrays, Oct-4 and SSEA-4 staining. It is filed as cell-based, human. The protocol: hESCs were passaged to SAMs of peptide-AT conjugates on gold in mTeSR™1 optionally supplemented with 10 ng/ml heregulin-β1 (Peprotech; Rocky Hill, N.J.) and 5 μM Y-27632 (Calbiochem; San Diego, Calif.). […] Some surfaces presented peptide-AT conjugates of only vitronectin GBP (SEQ ID NO:1), fibronectin GBP (SEQ ID NO:2) or bone sialoprotein GBP (SEQ ID NO:3) Alternatively, some surfaces presented peptide-AT conjugates of only the integrin-binding peptide (SEQ ID NO:5), another bioactive peptide derived from fibronectin (SEQ ID NO:6), the FGF receptor binding peptide (SEQ ID NO:4), the laminin-derived bioactive peptide (SEQ ID NO:7), […] (SEQ ID NO: 8) or […] (SEQ ID NO: 9). Furthermore, some surfaces presented separate peptide-AT conjugates of the integrin-binding peptide (SEQ ID NO:5) and FGF receptor binding peptide (SEQ ID NO:4); the integrin-binding peptide (SEQ ID NO:5) and vitronectin GBP (SEQ ID NO:1); the integrin-binding peptide (SEQ ID NO:5) and bioactive peptide derived from fibronectin (SEQ ID NO:6); and the vitronectin GBP (SEQ ID NO:1) and […] (SEQ ID NO: 9). The density of the peptides on the surface varied from 0.5% to 25% (see, FIG. 1).
Images were collected with a Hamamatsu (Bridgewater, N.J.) Digital Camera mounted onto an Olympus IX81 Microscope. […]

The test system of series [3] is hES cells (H9 and H13) and vector-free iPS cells (DF19-9). Put plainly: Cell growth over two passages (Cell Counting Kit-8). It is filed as cell-based, human. The protocol: hESCs (H9) were cultured on Matrigel, vitronectin, polylysine, […] (SEQ ID NO: 1), or KGRGDS (SEQ ID NO: 5) over two passages in mTeSR media supplemented with 5 μm ROCK inhibitor. Cell counts were calculated at each time point using Cell Counting Kit-8 (Dojindo Molecular Technologies, Inc., Rockville, Md.).
Background: Tetrazolium assays rely on reduction of a dye to a coloured formazan, in cell work by metabolically active cells.

For series [4], the system named is human ESCs (H9). As to the kind of experiment: Cell adhesion (CellTiter-Glo) with soluble heparin or chondroitinase ABC. It is filed as cell-based. The conditions noted are these: 1 hour. The protocol:
To determine the effect of a soluble GAG on hESC binding to GBPs, hESCs were plated onto Matrigel-coated surfaces, vitronectin-coated surfaces, or surfaces presenting the heparin-binding peptide […] (SEQ ID NO: 1) in the presence or absence of soluble heparin (0.5 mg/mL). After 1 hour, the surfaces were washed and the cells lysed. The cell lysates were used to determine approximate cell numbers using Cell Titer Glo (Promega). The ratio of the mean luminescence of the cell lysates of cells plated in the presence of heparin versus those without heparin was expressed as percent cell binding for each surface.
To determine if glycosaminoglycans (GAGs) are required for GBP binding, human ESCs (H9) cultured on Matrigel were dissociated using an enzyme-free, Hanks'-based cell dissociation buffer (Sigma) for 10-15 minutes. Cells were resuspended in DMEM/F12 (Gibco), or DMEM/F12 supplemented with 2 units/mL chondroitinase ABC (Sigma), or 500 ug/mL heparin (Sigma). Cells treated with the GAG-degrading enzymes were incubated for 1 hour in suspension at 37° C. Cell suspensions were seeded onto Matrigel-coated surfaces, recombinant vitronectin-coated surfaces (10 μg/mL, R&D Systems), or SAMs presenting the peptide […] (SEQ ID NO: 1) at a 5% surface density. After 1 hour, surfaces were washed 3 times with PBS and the cells were lysed with M-PER buffer (Thermo Fisher Scientific, Inc., Rockford, Ill.). The cell lysate was mixed with CellTiter-Glo (Promega) to determine the number of viable cells in culture based on the presence of ATP. The luminescence was measured on 20/20^n luminometer (Turner Biosystems, Inc., Sunnyvale Calif.). • Cell Growth: […]

Series [5] concerns hESCs. As to the kind of experiment: Embryoid body differentiation after long-term culture, germ layer marker staining. It is filed as cell-based, human. The conditions noted are these: 3 months on surface, then 2 weeks EB suspension culture. The source says: Images were collected with a Hamamatsu (Bridgewater, N.J.) Digital Camera mounted onto an Olympus IX81 Microscope. Primary antibodies used were as follows: Oct-4 (1:400; R&D Systems; Minneapolis, Minn.), SSEA-4 (1:400; Santa Cruz Biotechnology; Santa Cruz, Calif.), β-III tubulin (1:3000; R&D Systems), nestin (1:3000), α-fetoprotein (1:250; Sigma), FoxA2 (1:100; R&D Systems), α-smooth muscle actin (1:1000; Sigma), and fatty acid binding protein 4 (1:250; R&D Systems). Cells were fixed with PBS containing 4% formaldehyde and 0.15% picric acid for 20 minutes at 37° C. and then permeabilized and blocked with PBS containing 0.1% Triton X-100 and 0.1% bovine serum albumin (BSA). All antibodies were incubated in blocking buffer overnight at 4° C., except for the antibodies against β-III tubulin, nestin and α-smooth muscle actin, which were incubated for 1 hour at room temperature. Secondary staining was performed with Alexa Fluor® 488- and/or 594-conjugated antibodies (1:1000; Invitrogen) diluted in blocking buffer and incubated for 1 hour at room temperature. Cells were counterstained with 4′,6-diamidino-2-phenylindole, dilactate (DAPI; Invitrogen). Image overlays were generated using ImageJ (ImageJ is a public domain Java image processing program available on the World Wide Web). Peptide array mosaics were generated using the AnalySIS Acquisition Software (Olympus).

The subject of series [6] is H9 hESCs.

Ends that are not written are not given here.

Consider one sequence from US9006394B2, “Peptide-presenting surfaces for long-term culture of pluripotent cells” (Wisconsin Alumni Research Foundation, priority 2008, dated 2015).

Regarding “GKKQRFRHRNRKG (not fully specified (C-terminus); listed as Homo sapiens)”, the “number of cell divisions” value in series [1] is on record as “superior to polylysine-coated surfaces”. Further, in series [2], the “cell attachment and self-renewal, presence of Oct-4 and SSEA-4 after 6 days” value is “best supported both cell attachment and self-renewal”. Further, in series [3] (24 hours), the “plating efficiency after 24 hours” value is listed as “equivalent”. Further, the “cell numbers after each passage” value in series [3] (two passages, mTeSR with ROCK inhibitor) is “Increased cell numbers”. In series [4] (2 units/mL chondroitinase ABC, 5% surface density), the “adhesion of cells treated with chondroitinase ABC” value was “decreased adhesion”. Besides, the “hESC binding in the presence of soluble heparin” value in series [4] (soluble heparin 0.5 mg/mL) is given as “abrogate hESC binding”. In series [5], the “ectoderm derivatives: staining for β-III tubulin and nestin” value is recorded as “stained positive”; the “endoderm derivatives: staining for α-fetoprotein and FoxA2” value was “stained positive”; the “mesoderm derivatives: staining for fatty acid binding protein 4 and α-smooth muscle actin” value is reported as “stained positive”. The “karyotype by standard G banding” value in series [6] is given as “karyotypically normal”.
